Laboratory results: patent US11596639B2, “Substituted indole Mcl-1 inhibitors” (Vanderbilt University, priority 2016, dated 2023)
pKi: −log10 of the molar value. Like-named read-outs stand apart in the source and are kept apart here.

Experiments:
Mcl-1 = Mcl-1 (Homo sapiens (Human), UniProt Q07820); experiment: TR-FRET binding assay, FITC-Bak peptide and MBP-tagged Mcl-1; details: read-out: Ki for Inhibition of Mcl-1 by TR-FRET assay
Experimental: Compounds are diluted in DMSO in a 16-point, semilog serial dilution scheme. […] The plate was mixed and incubated for 3 hours at room temperature. […] TR-FRET signal is plotted and IC50 and Ki values are calculated in the same manner as the fluorescence polarization anisotropy based competition assays.

[1] = tested on: H929 human cancer cell lines; experiment: Cellular viability / proliferation (Cell TiterGlo, 72 h); assay type: cell-based
Method in brief: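 Compounds were added as 2-fold serial dilutions from 50 μM (final DMSO <1%) to H929 cells seeded 1,000 per well in 10% FBS medium one day earlier.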

[2] = Homo sapiens, NCI-H929, 72 h, read-out: GI50 on cellular proliferation of H929 human cancer cell lines, H929 cells, 72 h, Cell TiterGlo, 10% FBS

Sequence of Mcl-1 (Q07820 172-327): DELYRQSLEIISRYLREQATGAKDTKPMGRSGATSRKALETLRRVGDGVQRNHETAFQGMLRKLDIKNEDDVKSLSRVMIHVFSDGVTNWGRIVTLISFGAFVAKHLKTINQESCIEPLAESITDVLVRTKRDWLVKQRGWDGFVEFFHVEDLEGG

SMILES | pKi (Mcl-1) | GI50 [1, 2] [nM] | GI50 ([1]; H929 cells, 72 h, Cell TiterGlo, 10% FBS, read-out: GI50 on cellular proliferation of H929 human cancer cell lines) [nM]
Cc1cc(OCCCc2c3n(c4c(-c5c(C)ncnc5C)c(Cl)ccc24)[C@H](C)CN(c2cn(C)c4ccc(C(=O)O)nc24)C3=O)cc(C)c1Cl [Example 651, (R)-3-(7-chloro-10-(3-(4-chloro-3,5-dimethylphenoxy)propyl)-6-(4,6-dimethylpyrimidin-5-yl)-4-methyl-1-oxo-3,4-dihydropyrazino[1,2-a]indol-2(1H)-yl)-1-methyl-1H-pyrrolo[3,2-b]pyridine-5-carboxylic acid] | > 9.70 | 290 | –
COCCN(C)c1cc(N2C[C@@H](C)n3c(c(CCCOc4cc(C)c(Cl)c(C)c4)c4ccc(Cl)c(-c5c(C)nn(C)c5C)c43)C2=O)c2c(c1)cc(C(=O)O)n2C [Example 682, (R)-7-(7-chloro-10-(3-(4-chloro-3,5-dimethylphenoxy)propyl)-4-methyl-1-oxo-6-(1,3,5-trimethyl-1H-pyrazol-4-yl)-3,4-dihydropyrazino[1,2-a]indol-2(1H)-yl)-5-((2-methoxyethyl)(methyl)amino)-1-methyl-1H-indole-2-carboxylic acid] | > 9.70 | 340 | –
COCCOCCn1c(C(=O)O)cc2cc(C)cc(N3C[C@@H](C)n4c(c(CCCOc5cc(C)c(Cl)c(C)c5)c5ccc(Cl)c(-c6c(C)ncnc6C)c54)C3=O)c21 [Example 635, (R)-7-(7-chloro-10-(3-(4-chloro-3,5-dimethylphenoxy)propyl)-6-(4,6-dimethylpyrimidin-5-yl)-4-methyl-1-oxo-3,4-dihydropyrazino[1,2-a]indol-2(1H)-yl)-1-(2-(2-methoxyethoxy)ethyl)-5-methyl-1H-indole-2-carboxylic acid] | > 9.70 | < 200 | –
CCN(C)c1cc(N2C[C@@H](C)n3c(c(CCCOc4cc(C)c(Cl)c(C)c4)c4ccc(Cl)c(-c5c(C)nn(C)c5C)c43)C2=O)c2c(c1)cc(C(=O)O)n2C [Example 680, (R)-7-(7-chloro-10-(3-(4-chloro-3,5-dimethylphenoxy)propyl)-4-methyl-1-oxo-6-(1,3,5-trimethyl-1H-pyrazol-4-yl)-3,4-dihydropyrazino[1,2-a]indol-2(1H)-yl)-5-(ethyl(methyl)amino)-1-methyl-1H-indole-2-carboxylic acid] | 9.48 | 610 | –
COCc1cccn2nc(-c3ccc4c(c3)c(N3C[C@@H](C)n5c(c(CCCOc6cc(C)c(Cl)c(C)c6)c6ccc(Cl)c(-c7c(C)nn(C)c7C)c65)C3=O)cn4C)nc12 [Example 695, (R)-7-Chloro-10-(3-(4-chloro-3,5-dimethylphenoxy)propyl)-2-(5-(8-(methoxymethyl)-[1,2,4]triazolo[1,5-a]pyridin-2-yl)-1-methyl-1H-indol-3-yl)-4-methyl-6-(1,3,5-trimethyl-1H-pyrazol-4-yl)-3,4-dihydropyrazino[1,2-a]indol-1(2H)-one] | 9.24 | 280 | –
Cc1cc(OCCCc2c3n(c4c(-c5c(C)nn(C)c5C)c(Cl)ccc24)[C@H](C)CN(c2cn(CCCl)c4ccc(-c5ncn(C)n5)cc24)C3=O)cc(C)c1Cl [Example 529, (R)-7-Chloro-10-(3-(4-chloro-3,5-dimethylphenoxy)propyl)-2-(1-(2-chloroethyl)-5-(1-methyl-1H-1,2,4-triazol-3-yl)-1H-indol-3-yl)-4-methyl-6-(1,3,5-trimethyl-1H-pyrazol-4-yl)-3,4-dihydropyrazino[1,2-a]indol-1(2H)-one] | > 9.70 | 520 | –
COc1ccc(N2C[C@@H](C)n3c(c(CCCOc4cc(C)c(Cl)c(C)c4)c4ccc(Cl)c(-c5c(C)ncnc5C)c43)C2=O)c2c1cc(C(=O)O)n2Cc1ccc(C)cn1 [Example 478, (R)-7-(7-Chloro-10-(3-(4-chloro-3,5-dimethylphenoxy)propyl)-6-(4,6-dimethylpyrimidin-5-yl)-4-methyl-1-oxo-3,4-dihydropyrazino[1,2-a]indol-2(1H)-yl)-4-methoxy-1-((5-methylpyridin-2-yl)methyl)-1H-indole-2-carboxylic acid] | 9.62 | 560 | –
CCOCCOc1cc(N2C[C@@H](C)n3c(c(CCCOc4cc(C)c(Cl)c(C)c4)c4ccc(Cl)c(-c5c(C)nn(C)c5C)c43)C2=O)c2c(c1)c(C(=O)O)cn2Cc1ccccn1 [Example 610, (R)-7-(7-chloro-10-(3-(4-chloro-3,5-dimethylphenoxy)propyl)-4-methyl-1-oxo-6-(1,3,5-trimethyl-1H-pyrazol-4-yl)-3,4-dihydropyrazino[1,2-a]indol-2(1H)-yl)-5-(2-ethoxyethoxy)-1-(pyridin-2-ylmethyl)-1H-indole-3-carboxylic acid] | > 9.70 | 400 | –
Cc1cc(OCCCc2c3n(c4c(-c5c(C)nn(C)c5C)c(Cl)ccc24)[C@H](C)CN(c2cn(C)c4ccc(-n5ccnn5)cc24)C3=O)cc(C)c1Cl [Example 668, (R)-7-Chloro-10-(3-(4-chloro-3,5-dimethylphenoxy)propyl)-4-methyl-2-(1-methyl-5-(1H-1,2,3-triazol-1-yl)-1H-indol-3-yl)-6-(1,3,5-trimethyl-1H-pyrazol-4-yl)-3,4-dihydropyrazino[1,2-a]indol-1(2H)-one] | 8.12 | 1500 | –
COCCOc1cc(N2C[C@@H](C)n3c(c(CCCOc4cc(C)c(Cl)c(C)c4)c4ccc(Cl)c(-c5c(C)nn(C)c5C)c43)C2=O)c2c(c1)cc(C(=O)O)n2Cc1cccc(C)n1 [Example 540, (R)-7-(7-Chloro-10-(3-(4-chloro-3,5-dimethylphenoxy)propyl)-4-methyl-1-oxo-6-(1,3,5-trimethyl-1H-pyrazol-4-yl)-3,4-dihydropyrazino[1,2-a]indol-2(1H)-yl)-5-(2-methoxyethoxy)-1-((6-methylpyridin-2-yl)methyl)-1H-indole-2-carboxylic acid] | > 9.70 | < 200 | –
COc1ccc(N2C[C@@H](C)n3c(c(CCCOc4cc(C)c(Cl)c(C)c4)c4ccc(Cl)c(-c5c(C)n[nH]c5C)c43)C2=O)c2c1cc(C(=O)O)n2C [Example 727, (R)-7-(7-chloro-10-(3-(4-chloro-3,5-dimethylphenoxy)propyl)-6-(3,5-dimethyl-1H-pyrazol-4-yl)-4-methyl-1-oxo-3,4-dihydropyrazino[1,2-a]indol-2(1H)-yl)-4-methoxy-1-methyl-1H-indole-2-carboxylic acid] | > 9.70 | 500 | –
Cc1cc(OCCCc2c3n(c4c(-c5c(C)nn(C)c5C)c(Cl)ccc24)[C@H](C)CN(c2cc(CCN4CCOCC4)cc4cc(C(=O)O)n(C)c24)C3=O)cc(C)c1Cl [Example 715, (R)-7-(7-chloro-10-(3-(4-chloro-3,5-dimethylphenoxy)propyl)-4-methyl-1-oxo-6-(1,3,5-trimethyl-1H-pyrazol-4-yl)-3,4-dihydropyrazino[1,2-a]indol-2(1H)-yl)-1-methyl-5-(2-morpholinoethyl)-1H-indole-2-carboxylic acid] | > 9.70 | < 200 | –
Cc1cc(OCCCc2c3n(c4c(-c5c(C)nn(C)c5C)c(Cl)ccc24)[C@H](C)CN(c2cn(CC4(C)COC4)c4ccc(C(=O)O)cc24)C3=O)cc(C)c1Cl [Example 616] | > 9.70 | – | 340
Cc1ccnc(Cn2cc(C(=O)O)c3cccc(N4C[C@@H](C)n5c(c(CCCOc6cc(C)c(Cl)c(C)c6)c6ccc(Cl)c(-c7c(C)nn(C)c7C)c65)C4=O)c32)c1 [Example 480, (R)-7-(7-Chloro-10-(3-(4-chloro-3,5-dimethylphenoxy)propyl)-4-methyl-1-oxo-6-(1,3,5-trimethyl-1H-pyrazol-4-yl)-3,4-dihydropyrazino[1,2-a]indol-2(1H)-yl)-1-((4-methylpyridin-2-yl)methyl)-1H-indole-3-carboxylic acid] | > 9.70 | 250 | –
COCCCn1c(C(=O)O)cc2cc(C)cc(N3C[C@@H](C)n4c(c(CCCOc5cc(C)c(Cl)c(C)c5)c5ccc(Cl)c(-c6c(C)nn(C)c6C)c54)C3=O)c21 [Example 686, (R)-7-(7-chloro-10-(3-(4-chloro-3,5-dimethylphenoxy)propyl)-4-methyl-1-oxo-6-(1,3,5-trimethyl-1H-pyrazol-4-yl)-3,4-dihydropyrazino[1,2-a]indol-2(1H)-yl)-1-(3-methoxypropyl)-5-methyl-1H-indole-2-carboxylic acid] | > 9.70 | 520 | –
Cc1cc(OCCCc2c3n(c4c(-c5c(C)nn(C)c5C)c(Cl)ccc24)[C@H](C)CN(c2cn(Cc4cccnc4)c4ccc(C(=O)O)cc24)C3=O)cc(C)c1Cl [Example 563, (R)-3-(7-chloro-10-(3-(4-chloro-3,5-dimethylphenoxy)propyl)-4-methyl-1-oxo-6-(1,3,5-trimethyl-1H-pyrazol-4-yl)-3,4-dihydropyrazino[1,2-a]indol-2(1H)-yl)-1-(pyridin-3-ylmethyl)-1H-indole-5-carboxylic acid] | > 9.70 | 1500 | –
Cc1cc(OCCCc2c3n(c4c(-c5c(C)nn(C)c5C)c(Cl)ccc24)[C@H](C)CN(c2cn(CCN4CCCC4)c4ccc(-c5ncn(C)n5)cc24)C3=O)cc(C)c1Cl [Example 586, (R)-7-Chloro-10-(3-(4-chloro-3,5-dimethylphenoxy)propyl)-4-methyl-2-(5-(1-methyl-1H-1,2,4-triazol-3-yl)-1-(2-(pyrrolidin-1-yl)ethyl)-1H-indol-3-yl)-6-(1,3,5-trimethyl-1H-pyrazol-4-yl)-3,4-dihydropyrazino[1,2-a]indol-1(2H)-one] | 8.59 | 400 | –
